From BindingDB's records for patent US20250109139 (Shanghaitech University, 2025) come the findings set out here.

Usually Ki stands for the equilibrium dissociation constant of an inhibitor or competing ligand from its target.

This experiment concerns the target D(2) dopamine receptor (Homo sapiens, UniProt P14416). Description: Radioligand Competition Binding Assay. As for the experimental part: A 10 cm culture dish was used for transfection with […] of dopamine D2 receptors and 40 μL of polyethylenimine (PEI hereafter). […] A vacuum pump was used to suck off the culture medium, 3 mL of lysis buffer was added to each culture dish, and the cells were placed in a 4° C. cold room for 10 minutes. After the cells were detached, the cells were transferred to a 15 mL centrifuge tube and centrifuged at 1500 rpm for 5 minutes at 4° C., and the supernatant was discarded. The cell pellet was transferred to a tissue homogenizer, and 3 mL of lysis buffer was added and fully ground until the cells were broken. Then, cell suspension was equally aliquoted into several EP tubes, centrifuged at 12000 rpm for 5 minutes at 4° C., and the supernatant was discarded. […] First, a standard binding buffer was added to the cell membrane component containing the dopamine D2 receptors, and the cell membrane was disrupted and resuspended with an electric tissue homogenizer. 30 μL of membrane protein suspension was added to each well of a 96-well plate. […] Next, 30 μL of [3H]-Methylspiperone was added to each well of the 96-well plate. […] The machine readout value reflected the amount of [3H]-Methylspiperone bound on the membrane, and after further data processing, the affinity Ki values of different compounds for the dopamine D2 receptors were obtained.
For orientation: In a radioligand displacement assay an active substance lowers the binding of a labelled ligand.

Chain of D(2) dopamine receptor (P14416 whole entry): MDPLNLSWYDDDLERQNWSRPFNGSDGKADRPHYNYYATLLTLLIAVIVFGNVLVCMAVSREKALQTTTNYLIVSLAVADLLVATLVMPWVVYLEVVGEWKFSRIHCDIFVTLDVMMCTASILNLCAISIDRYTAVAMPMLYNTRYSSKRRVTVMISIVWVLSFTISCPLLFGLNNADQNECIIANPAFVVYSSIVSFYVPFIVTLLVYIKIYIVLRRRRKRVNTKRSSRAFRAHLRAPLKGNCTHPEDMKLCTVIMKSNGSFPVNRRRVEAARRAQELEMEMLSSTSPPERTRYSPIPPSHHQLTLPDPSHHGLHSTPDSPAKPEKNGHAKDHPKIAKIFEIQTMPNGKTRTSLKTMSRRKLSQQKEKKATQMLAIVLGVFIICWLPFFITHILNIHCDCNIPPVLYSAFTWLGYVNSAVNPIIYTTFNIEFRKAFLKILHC

With `CCOc1cccc2c3c(oc12)CN(CCCCc1ccc2ccc(=O)[nH]c2c1)CC3` [US20250109139, Compound I-A25], the Ki was 38 nM.
